Assay results taken from patent US11318167B2, “Isolation of fusion-competent myoblasts and therapeutic applications thereof related to muscular dystrophy” (THE JOHNS HOPKINS UNIVERSITY, priority 2015, dated 2022).

B1: BMP4: BMP4 protein added to the culture media (protein, UniProt P12644 293-408, looked up)
Bone morphogenetic protein 4: SPKHHSQRARKKNKNCRRHSLYVDFSDVGWNDWIVAPPGYQAFYCHGDCPFPLADHLNSTNHAIVQTLVNSVNSSIPKACCVPTELSAISMLYLDEYDKVVLKNYQEMVVEGCGCR

Assays:
[1] = test system: MESOGENIN1::eGFP reporter human embryonic stem cell (hESC) line; experiment: MESOGENIN1::eGFP reporter hESC line, pre-somite mesoderm induction (day 4); type: cell-based
Description: The present invention was created through a number of discoveries. First, to harness the potential of hPSCs, a protocol to direct hPSCs into the skeletal muscle lineage was developed. As the somite is an intermediate stage between hPSCs and myogenic progenitor cells (Bentzinger et al, 2012; Dequeant and Pourquie, 2008) (FIG. 6A), a MESOGENIN1::eGFP reporter human embryonic stem cell (hESC) line was generated with the CRISPR/Cas9 system (Mali et al, 2013) (FIG. 6B-6D), because MESOGENIN1 is a genetic marker for the pre-somite mesoderm fate (Fior et al., 2012). […] For myogenic differentiation, hESCs/hiPSCs were rendered to single cells using Accutase® solution, and plated on gelatin for 10 minutes to remove MEFs. Non-adherent cells were collected and plated on Geltrex™ treated dishes, at a density of 1.5×10^5 cells per well of a 24-well plate, in the presence of MEF-conditioned N2 media containing 10 ng/ml of FGF-2 and 10 μM of Y-27632 (Cayman Chemical Co.) (day 0). The N2 medium, described in detail, contains DMEM/F12 powder, glucose, sodium bicarbonate, insulin, putrescine, progesterone, sodium selenite, and transferrin. From the next day (day 1), media was changed at every other day. BIO (30 nM-250 nM), lithium chloride (20 μM-20 mM), Kenpallone (1 μM-10 μM), SB 216763 (1 μM-10 μM), WNT-1 (10 ng/ml-100 ng/ml), WNT-3A (10 ng/ml-100 ng/ml), WNT-7A (10 ng/ml-100 ng/ml), SBE13 hydrochloride (0.1 nM-10 μM), and OTSSP167 hydrochloride (0.1 nM-10 nM) were tested during day 1 to day 4, as well as during day 4 to day 8. Final concentrations of CHIR99021 and DAPT treatment are 3 μM and 10 μM, respectively.

[2] = test system: canonical WNT signaling pathway; experiment: β-catenin translocation into the nucleus (canonical WNT signaling); type: cell-based, human
Description: The present invention was created through a number of discoveries. First, to harness the potential of hPSCs, a protocol to direct hPSCs into the skeletal muscle lineage was developed. As the somite is an intermediate stage between hPSCs and myogenic progenitor cells (Bentzinger et al, 2012; Dequeant and Pourquie, 2008) (FIG. 6A), a MESOGENIN1::eGFP reporter human embryonic stem cell (hESC) line was generated with the CRISPR/Cas9 system (Mali et al, 2013) (FIG. 6B-6D), because MESOGENIN1 is a genetic marker for the pre-somite mesoderm fate (Fior et al., 2012).

[3] = test system: control hiPSC-derived myoblasts; experiment: Effect of DMD-myoblast conditioned media / BMP4 on control hiPSC-derived myoblasts; type: cell-based, human; settings: BMP4 four concentrations, 7.5 μg/ml to 25 μg/ml; compared with inhibitive effect of DMD-myoblast CM
Description: FIG. 10A-10D is related to FIG. 5 and illustrates the effect of BMP4 on myoblasts and its pharmacological rescue. (A) Increased level of BMP4 expression in DMD-myoblasts than control myoblasts. (B-C) Inhibitive effect of conditioned media (CM, harvested after 24 hr incubation) from DMD-myoblasts on fusion index (B), and MYOG, and MYOD1 expression (C) of control hiPSC-derived myoblasts. […] (D) The decreased fusion index in DMD-CM-treated myoblasts was rescued by ‘dual SMAD inhibition’ compounds. (*, P≤0.05; ***, P≤0.001; ****, P≤0.0001, One-way ANOVA followed by Newman-Keuls test). n=3-5. All values represent means and s.d.
To find pharmacological rescue of the in vitro phenotypes, aberrant BMP and TGFβ signaling indicated by increased nuclear localization of pSMAD proteins in DMD-myoblasts (FIG. 3C-3D) was studied. Increased levels of BMP4 in the conditioned media (CM) of DMD-myoblasts (FIG. 10A) was detected. […] The effect of CM of DMD-myoblasts was reproduced by treatment with BMP4 protein in the culture media, which was reversed by treatment with ‘dual-SMAD’ inhibition compounds (FIG. 10D) (LDN+SB: LDN193189 and SB431542).

Row | Molecule | expression of MESOGENIN1::eGFP (cells out of total cells in a dish) ([1]; brief treatment 4 days after day 0, read at day 4, final concentration 3 μM) | expression of TBX6 (positive cells) ([1]; brief treatment 4 days, read at day 4) | expression of PAX3 ([1]; brief treatment 4 days, read at day 4, dose-dependent manner) | β-catenin translocation into the nucleus [2] | MYOG and MYOD1 expression of control hiPSC-derived myoblasts [3] | fusion index of control hiPSC-derived myoblasts [3]
1 | Cc1c[nH]c(-c2cnc(NCCNc3ccc(C#N)cn3)nc2-c2ccc(Cl)cc2Cl)n1.Cl [CHIR99021] | 80.8±11.3% | 67.4±10.4% | significantly increased expression | β-catenin translocation into the nucleus | – | –
2 | B1 | – | – | – | – | recapitulated the effect of CM of DMD-myoblasts | recapitulated the effect of CM of DMD-myoblasts
